Experimental data reported in ChEMBL document CHEMBL4295262, “Evaluation of the utility of stem-cell derived cardiomyocytes for drug proarrhythmic potential” (2019).
Blank lines part the entries; values can stand above or below the compound they belong to.

Experiments:
Conditions in all cases: human, ipsc-cm
[1] = (§1) Electrical activity assay on cell lines treated with a given drug. DMSO was used as a vehicle and a control, unblinded dofetilide was used as a control.
[2] = as §1; format: ADME, cell-based; design: FPDc: unit not given here
[3] = as §1; format: cell-based; design: APDc: unit not given here
[4] = as §1; format: ADME, cell-based
[5] = as §1; format: ADME, cell-based; design: FPDc: unit not given here; remark: listed apart in the source
[6] = as §1; remark: listed apart in the source
[7] = 0.003169 µM, concentration (um) 0.00316912 uM
[8] = 0.01001 µM, concentration (um) 0.0100144 uM
[9] = 0.03165 µM, concentration (um) 0.0316456 uM
[10] = 0.1 µM, concentration (um) 0.1 uM
[11] = 0.001 µM, concentration (um) 0.001 uM
[12] = 0.01 µM, concentration (um) 0.01 uM
[13] = 10 µM, concentration (um) 10 uM
[14] = 0.09507 µM, concentration (um) 0.0950736 uM
[15] = 0.3004 µM, concentration (um) 0.300433 uM
[16] = 0.9494 µM, concentration (um) 0.949367 uM

FPDc [2, 7]: 0.04125
FPDc [2, 8]: 0.03941
FPDc [2, 9]: 0.04671
FPDc [2, 10]: 0.04762
APDc [3, 7]: 60.87
FPD measurement [3, 7]: 60.87 FPDc
APDc [3, 8]: 62.7
FPD measurement [3, 8]: 62.7 FPDc
APDc [3, 9]: 58.7
FPD measurement [3, 9]: 58.7 FPDc
APDc [3, 10]: 92.05
FPD measurement [3, 10]: 92.05 FPDc
SMILES: COc1cc(N)c(Cl)cc1C(=O)NC1CCN(CCCOc2ccc(F)cc2)CC1OC (configuration not stated) [CISAPRIDE]
FPD measurement ([1]; 0.003169 µM): 1 Values Out Of 1 Were Excluded Due To Quiescence Or 0 Fpdc
FPDc ([1]; 0.003169 µM): 1 Values Out Of 1 Were Excluded Due To Quiescence Or 0 Fpdc
FPD measurement ([1]; 0.01001 µM): 1 Values Out Of 1 Were Excluded Due To Quiescence Or 0 Fpdc
FPDc ([1]; 0.01001 µM): 1 Values Out Of 1 Were Excluded Due To Quiescence Or 0 Fpdc
FPD measurement ([1]; 0.03165 µM): 1 Values Out Of 1 Were Excluded Due To Quiescence Or 0 Fpdc
FPDc ([1]; 0.03165 µM): 1 Values Out Of 1 Were Excluded Due To Quiescence Or 0 Fpdc
FPD measurement ([1]; 0.1 µM): 1 Values Out Of 1 Were Excluded Due To Quiescence Or 0 Fpdc
FPDc ([1]; 0.1 µM): 1 Values Out Of 1 Were Excluded Due To Quiescence Or 0 Fpdc

FPDc [2, 11]: 0.02679
FPDc [2, 12]: 0.03865
FPD measurement [4, 11]: 52.61 FPDc
FPD measurement [4, 12]: 58.45 FPDc
FPDc [5, 11]: 48.96
FPDc [5, 12]: 54.23
FPDc [5, 10]: 56.48
FPDc ([5]; 1 µM, concentration (um) 1 uM): 50.52
SMILES: COc1ccc(CCN(C)CCCC(C#N)(c2ccc(OC)c(OC)c2)C(C)C)cc1OC (configuration not stated) [VERAPAMIL]
FPD measurement ([1]; 0.001 µM): 1 Values Out Of 1 Were Excluded Due To Quiescence Or 0 Fpdc
FPDc ([1]; 0.001 µM): 1 Values Out Of 1 Were Excluded Due To Quiescence Or 0 Fpdc
FPD measurement ([1]; 0.01 µM): 1 Values Out Of 1 Were Excluded Due To Quiescence Or 0 Fpdc
FPDc ([1]; 0.01 µM): 1 Values Out Of 1 Were Excluded Due To Quiescence Or 0 Fpdc
FPD measurement ([1]; 0.1 µM): 1 Values Out Of 1 Were Excluded Due To Quiescence Or 0 Fpdc
FPDc ([1]; 0.1 µM): 1 Values Out Of 1 Were Excluded Due To Quiescence Or 0 Fpdc
FPD measurement ([1]; 1 µM): 1 Values Out Of 1 Were Excluded Due To Quiescence Or 0 Fpdc
FPDc ([1]; 1 µM): 1 Values Out Of 1 Were Excluded Due To Quiescence Or 0 Fpdc
FPD measurement [2, 10]: More Than Half The Wells Had A Quiescence Event Or Fpdc Readings Of 0
FPDc [2, 10]: More Than Half The Wells Had A Quiescence Event Or Fpdc Readings Of 0
FPD measurement ([2]; 1 µM, concentration (um) 1 uM): More Than Half The Wells Had A Quiescence Event Or Fpdc Readings Of 0
FPDc ([2]; 1 µM, concentration (um) 1 uM): More Than Half The Wells Had A Quiescence Event Or Fpdc Readings Of 0
FPDc [4, 11]: 6 Values Out Of 6 Were Excluded Due To Quiescence Or 0 Fpdc
FPDc [4, 12]: 6 Values Out Of 6 Were Excluded Due To Quiescence Or 0 Fpdc
FPDc [4, 10]: 6 Values Out Of 6 Were Excluded Due To Quiescence Or 0 Fpdc
FPDc ([4]; 1 µM, concentration (um) 1 uM): 6 Values Out Of 6 Were Excluded Due To Quiescence Or 0 Fpdc
FPD measurement [5, 11]: 5 Values Out Of 5 Were Excluded Due To Quiescence Or 0 Apdc
FPD measurement [5, 12]: 5 Values Out Of 5 Were Excluded Due To Quiescence Or 0 Apdc
FPD measurement [5, 10]: 5 Values Out Of 5 Were Excluded Due To Quiescence Or 0 Apdc
FPD measurement ([5]; 1 µM, concentration (um) 1 uM): 5 Values Out Of 5 Were Excluded Due To Quiescence Or 0 Apdc

FPD measurement ([6]; 0.01 µM): 53.63 FPDc
FPDc ([6]; 0.01 µM): 53.63
FPD measurement ([6]; 0.1 µM): 45.42 FPDc
FPDc ([6]; 0.1 µM): 45.42
FPD measurement ([6]; 1 µM): 28.2 FPDc
FPDc ([6]; 1 µM): 28.2
FPD measurement ([6]; 10 µM): 13.87 FPDc
FPDc ([6]; 10 µM): 13.87
FPDc [2, 12]: 0.0252
APDc [3, 12]: 56.41
FPD measurement [3, 12]: 56.41 FPDc
APDc [3, 10]: 49.22
FPD measurement [3, 10]: 49.22 FPDc
APDc ([3]; 1 µM, concentration (um) 1 uM): 40.25
FPD measurement ([3]; 1 µM, concentration (um) 1 uM): 40.25 FPDc
APDc [3, 13]: 32.58
FPD measurement [3, 13]: 32.58 FPDc
SMILES: COc1ccc([C@@H]2Sc3ccccc3N(CCN(C)C)C(=O)[C@@H]2OC(C)=O)cc1 [DILTIAZEM]
FPD measurement [2, 10]: More Than Half The Wells Had A Quiescence Event Or Fpdc Readings Of 0
FPDc [2, 10]: More Than Half The Wells Had A Quiescence Event Or Fpdc Readings Of 0
FPD measurement ([2]; 1 µM, concentration (um) 1 uM): More Than Half The Wells Had A Quiescence Event Or Fpdc Readings Of 0
FPDc ([2]; 1 µM, concentration (um) 1 uM): More Than Half The Wells Had A Quiescence Event Or Fpdc Readings Of 0
FPD measurement [2, 13]: More Than Half The Wells Had A Quiescence Event Or Fpdc Readings Of 0
FPDc [2, 13]: More Than Half The Wells Had A Quiescence Event Or Fpdc Readings Of 0

FPD measurement ([6]; 0.09507 µM): 53.9 FPDc
FPDc ([6]; 0.09507 µM): 53.9
FPD measurement ([6]; 0.3004 µM): 52.05 FPDc
FPDc ([6]; 0.3004 µM): 52.05
FPD measurement ([6]; 0.9494 µM): 50.49 FPDc
FPDc ([6]; 0.9494 µM): 50.49
FPD measurement ([6]; 3 µM): 44.91 FPDc
FPDc ([6]; 3 µM): 44.91
FPDc [2, 14]: 0.04224
FPDc [2, 15]: 0.04702
FPDc [2, 16]: 0.04411
APDc [3, 14]: 69.32
FPD measurement [3, 14]: 69.32 FPDc
APDc [3, 15]: 63.65
FPD measurement [3, 15]: 63.65 FPDc
APDc [3, 16]: 55.94
FPD measurement [3, 16]: 55.94 FPDc
APDc ([3]; 3 µM, concentration (um) 3 uM): 58.51
FPD measurement ([3]; 3 µM, concentration (um) 3 uM): 58.51 FPDc
SMILES: CN(C)CCCN1c2ccccc2Sc2ccc(Cl)cc21 [CHLORPROMAZINE]
FPD measurement ([2]; 3 µM, concentration (um) 3 uM): More Than Half The Wells Had A Quiescence Event Or Fpdc Readings Of 0
FPDc ([2]; 3 µM, concentration (um) 3 uM): More Than Half The Wells Had A Quiescence Event Or Fpdc Readings Of 0
